ChEMBL document CHEMBL1201862, “PubChem BioAssay data set” (2004)
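Results reflect a 48-hour exposure of cells in 96-well plates to compound at five concentrations. GI50 marks 50% less growth.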 Active and inactive are the calls of the source. Rule as the data show it: active = GI50 up to about 1.1 µM and inactive = higher.

Key:
Test in all cases: DTP human tumour cell line panel, 48 h
MOLT-4 = system: MOLT-4
MDA-N = system: MDA-N
U-251 = system: U-251
NCI-H23 = system: NCI-H23
SW-620 = system: SW-620
EKVX = system: EKVX
SNB-75 = system: SNB-75
COLO 205 = system: COLO 205
TK-10 = system: TK-10
KM12 = system: KM12
LOX IMVI = system: LOX IMVI
ACHN = system: ACHN
HL-60 = system: HL-60
T47D = system: T47D
HT-29 = system: HT-29
SK-OV-3 = system: SK-OV-3
SNB-19 = system: SNB-19
CAKI-1 = system: CAKI-1
K562 = system: K562
UACC-62 = system: UACC-62

Measured: GI50

C=C1C(=O)O[C@@H]2C[C@@H](C)[C@@H]3C=CC(=O)[C@@]3(C)[C@@H](OC(=O)CCCC(=O)O[C@H]3[C@@H]4C(=C)C(=O)O[C@@H]4C[C@@H](C)[C@@H]4C=CC(=O)[C@]43C)[C@H]12
active: MOLT-4 < 0.01 µM | MDA-N 0.0183 µM | U-251 0.101 µM | NCI-H23 0.0853 µM | SW-620 0.0144 µM | EKVX 0.0875 µM | SNB-75 0.113 µM | COLO 205 0.0197 µM | TK-10 0.0682 µM | KM12 0.231 µM | LOX IMVI 0.0518 µM | ACHN 0.0266 µM | HL-60 < 0.01 µM | T47D 0.0214 µM | HT-29 0.0352 µM | SNB-19 1.05 µM | CAKI-1 0.0323 µM | K562 < 0.01 µM | UACC-62 0.0565 µM
inactive: SK-OV-3 1.35 µM

C=C1C[C@@H]2O[C@H]3[C@H]4[C@@H](C[C@@H](C)[C@@H](OC(C)=O)[C@H]42)[C@@H](C)CO[C@@]3(C)[C@H](OC(C)=O)C[C@H]1O
inactive: MOLT-4 53 µM | MDA-N 40.5 µM | U-251 > 100 µM | NCI-H23 > 100 µM | SW-620 55.6 µM | EKVX > 100 µM | SNB-75 84.3 µM | COLO 205 88.1 µM | TK-10 > 100 µM | KM12 > 100 µM | LOX IMVI 17.1 µM | ACHN > 100 µM | HL-60 16.9 µM | T47D > 100 µM | HT-29 63.2 µM | SK-OV-3 > 100 µM | SNB-19 > 100 µM | CAKI-1 > 100 µM | K562 25.7 µM | UACC-62 > 100 µM

COc1cccc(Cc2cc(=O)c3ccc(C)nc3[nH]2)c1
inactive: MOLT-4 41.3 µM | MDA-N > 100 µM | U-251 > 100 µM | NCI-H23 > 100 µM | SW-620 > 100 µM | EKVX > 100 µM | SNB-75 93.8 µM | COLO 205 > 100 µM | TK-10 > 100 µM | KM12 > 100 µM | LOX IMVI > 100 µM | HL-60 55.5 µM | T47D > 100 µM | HT-29 > 100 µM | SK-OV-3 > 100 µM | SNB-19 > 100 µM | CAKI-1 > 100 µM | K562 86.7 µM | UACC-62 > 100 µM
